The values below come from patent US20240358731A1, “SUMO PATHWAY AS AN OXYGEN SENSOR RELEVANT TO THE PATHOPHYSIOLOGY OF PULMONARY ARTERY HYPERTENSION AND CARDIAC ARRHYTHMIA” (Northeastern University, priority 2023, published 2024).

Test [1] has as its target T1, SUMO activating enzyme (SAE) (Homo sapiens, UniProt Q9UBE0+Q9UBT2).
T1 sequence (Q9UBE0 1-346): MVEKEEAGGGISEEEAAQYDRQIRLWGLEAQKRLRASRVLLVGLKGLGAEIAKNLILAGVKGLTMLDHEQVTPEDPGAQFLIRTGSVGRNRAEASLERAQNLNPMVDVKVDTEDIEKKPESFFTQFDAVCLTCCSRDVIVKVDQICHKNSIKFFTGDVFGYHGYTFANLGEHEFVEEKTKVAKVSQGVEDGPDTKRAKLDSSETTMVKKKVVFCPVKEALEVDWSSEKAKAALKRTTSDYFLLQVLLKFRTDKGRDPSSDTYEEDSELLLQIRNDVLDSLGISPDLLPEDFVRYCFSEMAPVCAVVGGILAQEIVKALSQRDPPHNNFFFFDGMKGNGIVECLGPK
T1 sequence (Q9UBT2 1-640): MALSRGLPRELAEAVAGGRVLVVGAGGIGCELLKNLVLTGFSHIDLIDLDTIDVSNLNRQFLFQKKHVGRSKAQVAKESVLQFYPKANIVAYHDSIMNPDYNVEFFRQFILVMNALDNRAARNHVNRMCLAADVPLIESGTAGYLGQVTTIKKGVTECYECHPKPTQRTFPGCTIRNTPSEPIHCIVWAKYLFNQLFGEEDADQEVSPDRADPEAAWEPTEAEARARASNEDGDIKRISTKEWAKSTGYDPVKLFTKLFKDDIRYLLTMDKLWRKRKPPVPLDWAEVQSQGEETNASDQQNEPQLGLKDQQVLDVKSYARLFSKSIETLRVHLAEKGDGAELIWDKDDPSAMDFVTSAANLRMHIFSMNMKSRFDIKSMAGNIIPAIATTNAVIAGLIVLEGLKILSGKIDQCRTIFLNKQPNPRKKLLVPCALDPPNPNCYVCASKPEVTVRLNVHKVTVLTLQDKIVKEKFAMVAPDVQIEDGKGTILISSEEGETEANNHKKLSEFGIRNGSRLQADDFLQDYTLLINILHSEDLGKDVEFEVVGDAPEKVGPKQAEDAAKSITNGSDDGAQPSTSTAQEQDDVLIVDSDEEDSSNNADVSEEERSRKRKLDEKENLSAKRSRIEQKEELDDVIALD
The following applies: cited from earlier work.

The target in the next test is Ubc9 (Homo sapiens, UniProt P63279). The following applies: cited from earlier work.
The test system of another test is E1 and E2. The following applies: cited from earlier work.
The target in test [2] is T2, Kir2.1-mediated IK1 current (Rattus norvegicus, UniProt Q64273).
T2 construct: endogenous in cells; host or cells: rat ventricular cardiomyocytes (RVCMs)
T2 sequence (Q64273 1-427): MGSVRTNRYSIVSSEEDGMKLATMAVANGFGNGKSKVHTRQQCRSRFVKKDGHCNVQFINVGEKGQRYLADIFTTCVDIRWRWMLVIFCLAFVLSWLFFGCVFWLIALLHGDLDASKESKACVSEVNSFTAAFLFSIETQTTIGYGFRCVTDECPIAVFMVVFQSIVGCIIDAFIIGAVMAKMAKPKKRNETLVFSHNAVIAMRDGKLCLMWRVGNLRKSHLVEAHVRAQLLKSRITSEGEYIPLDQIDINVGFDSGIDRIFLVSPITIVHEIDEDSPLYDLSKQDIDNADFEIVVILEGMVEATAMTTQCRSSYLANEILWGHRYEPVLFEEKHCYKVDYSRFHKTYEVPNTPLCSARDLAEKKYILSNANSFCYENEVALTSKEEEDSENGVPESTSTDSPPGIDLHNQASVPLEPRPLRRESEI
Kind of test: Whole-cell patch-clamp of IK1 in rat ventricular cardiomyocytes under acute hypoxia. In kind it is cell-based. As for the experimental part: IK1 in rat ventricular cardiomyocytes studied by whole-cell patch-clamp. Hypoxia was a drop in O2 from ambient levels to 2%, measured at the cell. The time-course of hypoxic-inhibition was studied by recording the magnitude of IK1 every second. Cells were studied with the following pipette solutions: control, SUMO1 (1 μM) or SENP1 (2 μM). IK1 was blocked by the addition of 3 mM Ba^2+. […] Left, representative current sweeps; right, a representative time course showing the kinetics of hypoxic inhibition in cardiomyocytes studied with control pipette solution. The inhibition is precluded by including SENP1 (2 μM, magenta) in the recording pipette. The reverse ramp recording protocol is inset. […] SENP1 augments IK1 and protects the current from hypoxia. Data are from 8-10 RVCMs per group, **** P<0.0001, paired, two-tailed Student's […]. […] Representative data are shown with DAPI labeled nuclei and PLA interactions. Summary data are obtained from multiple experiments each with multiple fields of view containing 20-30 nuclei. The scale bar is 10 μm.
(§1) To knockdown Kir2.1 expression, RVCMs were transduced with lentiviral particles carrying cGFP and shRNA targeting KCNJ2-mRNA for the channel. Kir2.1 knockdown cells (Kir2.1kd-CMs) were identified by expression of cGFP. Cells were studied with control pipette solution, or with pipette solutions containing purified SUMO1 (1 μM) or SENP1 (2 μM). Where indicated, the control pipette solution contained diC8 PIP2. Paired patch-clamp data were analyzed by Students t-test; ***, P<0.01. […] Kir2.1kd-CMs are identified by expression of GFP (inset, scale bar=10 μm). […] The arrow indicates the change in current-magnitude between exposure to ambient O2 and 2% O2 in the same cell. Right, Concentration-response curve showing that including diC8-PIP2 in the pipette opposes hypoxic-inhibition of IK1 in control RVCMs and RVCMs expressing the scrambled shRNA. The hypoxic-response is diminished in Kir2.1kd-CMs. Data are mean±s.d. for 7-8 cells per condition. […] Current inhibition is diminished when SENP1 is included in the recording pipette and is not observed when SUMO-insensitive Kir2.1-K49Q channels are studied. Data are mean±s.d. for 6 cells per condition.
Hypoxic-inhibition of Kir2.1 in cardiomyocytes via SUMOylation. We studied the effects of acute hypoxia on IK1 in rat ventricular cardiomyocytes (RVCMs) by whole cell patch-clamp recording. […] Both the hypoxia-sensitive and insensitive components of the current were blocked by Ba^2+ (3 mM), consistent with the known role of Kir2 channels in mediating IK1 (FIG. 1a). To determine if SUMOylation mediates the hypoxic inhibition of IK1 we introduced purified SENP1 (2 μM) to the cytosol via the recording pipette. […] Both the SUMO1 and hypoxia-mediated inhibition of IK1 remained stable throughout the remainder of the experiment (up to 10 mins). […] Next, we visualized and quantified the interactions between native Kir2.1 and SUMO1 in RVCMs using the proximity-ligation association (PLA) assay with antibodies we validated in heterologous cells by Western blot. […] The validated Kir2 antibodies were paired with SUMO1 antibodies that we have tested and utilized before. Under control conditions, interactions were observed between Kir2.1 and SUMO1, but not between Kir2.2 or Kir2.3 and SUMO1. […] Although cardiomyocytes are typically cultured at 21% O2, the O2-level in the myocardium is estimated to be in the range of 5-10% O2, under physiological conditions.
Hypoxic-inhibition of IK1/Kir2.1 is reduced by diC8-PIP2 in a concentration-dependent manner. We have shown that adding the exogenous, soluble PIP2 analog diC8-PIP2 into the patch-pipette opposes hypoxic-inhibition of IK1 (FIG. 4). […] As before, the effects of hypoxia were ameliorated by SENP1 (2 μM) and were not observed in the SUMO and hypoxia insensitive Kir2.1-K49Q channels (FIG. 4D).
For orientation: The patch-clamp technique gives a direct electrical read-out from membranes.

For another test, the target named is T3, Kir2.1 channels (Homo sapiens, UniProt P63252).
T3 construct: expressed in transfected cells; host or cells: HEK293T
T3 sequence (P63252 1-427): T2 sequence (Q64273 1-427) with S119G, C336Y, E388D, S402T, G405D
The experiment in a line: Whole-cell patch-clamp of heterologous Kir2.1 channels in HEK293T cells under hypoxia. In kind it is cell-based. The following applies: agent in recording pipette (SENP1 2 μM). The method, then: as §1
Hypoxic-inhibition of IK1/Kir2.1 is reduced by diC8-PIP2 in a concentration-dependent manner. We have shown that adding the exogenous, soluble PIP2 analog diC8-PIP2 into the patch-pipette opposes hypoxic-inhibition of IK1 (FIG. 4). […]

Another test has as its system SUMOylation. The note with it: cited from earlier work.
The next test has as its target T4, Kir2.4 (Homo sapiens, UniProt Q9UNX9).
T4 sequence (Q9UNX9 1-436): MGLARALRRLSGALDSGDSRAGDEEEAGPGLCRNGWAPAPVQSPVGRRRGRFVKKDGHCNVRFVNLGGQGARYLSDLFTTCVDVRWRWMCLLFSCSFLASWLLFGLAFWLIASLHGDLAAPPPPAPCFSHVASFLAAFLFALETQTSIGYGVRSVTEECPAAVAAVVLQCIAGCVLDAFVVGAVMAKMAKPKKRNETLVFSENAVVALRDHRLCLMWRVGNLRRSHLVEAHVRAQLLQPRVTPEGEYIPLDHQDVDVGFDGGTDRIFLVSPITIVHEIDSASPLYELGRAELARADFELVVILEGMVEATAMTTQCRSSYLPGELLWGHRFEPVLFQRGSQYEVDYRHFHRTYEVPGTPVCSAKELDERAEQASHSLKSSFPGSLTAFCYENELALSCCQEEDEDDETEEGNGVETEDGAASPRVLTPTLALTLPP
The experiment in a line: Whole-cell patch-clamp of Kir2.4 in HEK293 cells with SUMO1 or SENP1 in the recording pipette. It counts as cell-based. On the set-up: expressed in transfected cells. The note with it: 1 nM in pipette; 140 mM bath K+; within one-minute of breakthrough. The method, then:
Currents were measured at −80 mV in 140 mM external K+.
Similarly, currents were no longer enhanced by SENP1.
SUMOylation regulates Kir2.4 channels in mammalian cells. Next, we tested if SUMO could regulate Kir2.4 channels in mammalian cells. Kir2.4 channels were transiently expressed in HEK293 cells and studied in whole-cell mode with 140 mM bath [K]^+, using a ramp protocol from −80 to +80 mV. Purified SUMO1 or SENP1 peptide were introduced via the recording pipette. At 1 nM, SUMO1, but not heat-denatured SUMO1, inhibited Kir2.4 currents by ˜40 and 60%, respectively, within one-minute of breakthrough. In contrast, 1 nM SENP1 increased the current by ˜50% (FIG. 7).
The PIP2-dependence of SUMO-regulation. Using the 5-ptaseOCRL system, we depleted PIP2 in HEK293 cells expressing Kir2.4 and studied currents with 1 nM SUMO1, or SENP1 in the recording pipette. When currents were recorded after 5-min activation of the optogenetic probe, 5-ptaseOCRL, the inhibitory effect of 1 nM SUMO1 on Kir2.4 was reduced from ˜40% to ˜7% (FIG. 9). Current augmentation observed with SENP1 in the pipette was reduced from […] to ˜6%. These preliminary data support the conclusion that SUMO-regulation of Kir2.4 channels is PIP2-dependent.

Residue numbers refer to the chain shown, from its start.

Chain of Ubc9 (P63279 whole entry): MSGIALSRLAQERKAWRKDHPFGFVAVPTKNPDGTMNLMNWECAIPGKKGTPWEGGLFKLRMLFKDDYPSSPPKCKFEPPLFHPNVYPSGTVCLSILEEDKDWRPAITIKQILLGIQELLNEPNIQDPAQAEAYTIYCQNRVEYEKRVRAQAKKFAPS

In the case of `c1coc(-c2cc(CNc3ncnc4sc5cnccc5c34)no2)c1` [Compound 22], the “formation of the E1-SUMO complex” value in test [1] was “unable to block formation of the E1-SUMO complex”. Moreover, the “selectivity for the SUMOylation pathway” value on Ubc9 is listed as “modest selectivity for the SUMOylation pathway”.
Regarding `CO/C(=C/C(=O)O)[C@H]1c2cc3ccc(-c4ccc5cc6c(c(O)c5c4O)C(=O)C[C@@](C)(O)[C@H]6/C(=C\C(=O)O)OC)c(O)c3c(O)c2C(=O)C[C@@]1(C)O` [spectomycin B1], the “Ubc9 (SUMO-E2) inhibition” value at Ubc9 is listed as “inhibitors of SUMO-E2”.
On to `COC1=C(N)C(=O)c2[nH]cc(CO)c2C1=N` [Compound 61], for which, in the test on E1 and E2, the “ROS generation and E1/E2 crosslinking” value is “generated ROS and subsequent E1 and E2 crosslinking”.
As to chaetochromin A, the “Ubc9 (SUMO-E2) inhibition” value at Ubc9 is “inhibitors of SUMO-E2”.
With `CCCCCCCC(=O)OC[C@H](COP(=O)(O)O[C@@H]1[C@H](O)[C@H](O)[C@@H](OP(=O)(O)O)[C@H](OP(=O)(O)O)[C@H]1O)OC(=O)CCCCCCC` [diC8-PIP2], in test [2] (100 μM diC8-PIP2 in pipette, wild-type RVCMs, ~40% without), the “hypoxic inhibition of IK1” value is listed as roughly 15%. Also, the “effect on hypoxic inhibition of IK1” value in test [2] (ambient O2 to 2% O2, agent in pipette (SENP1 2 μM, SUMO1 1 μM, diC8-PIP2) or pretreatment (TAK981)) is listed as “diminished the hypoxic-inhibition of IK1 in a concentration-dependent manner”. Moreover, the “effect on hypoxic inhibition of Kir2.1 channels” value on Kir2.1 channels is given as “concentration-dependent reduction in hypoxic inhibition”.
As to `Cc1cc(NC(=O)c2ccc(S(=O)(=O)N3CCC(C)CC3)cc2)ccc1NC(=O)Cn1cccn1` [Compound 26], on Ubc9, the “formation of the SUMO-E2 complex” value was “inhibited formation of the SUMO-E2 complex”.
As to `CSC1=C(N)C(=O)c2[nH]cc(CO)c2C1=N` [macrophilone A], in the test with SUMOylation, the SUMOylation inhibition result is recorded as “demonstrated SUMOylation inhibitory activity through formation of ROS”. The “ROS generation and E1/E2 crosslinking” value in the test on E1 and E2 was “generated ROS and subsequent E1 and E2 crosslinking”.
For the compound `O=c1cc(-c2ccc(O)c(O)c2O)oc2ccccc12` [Compound 2-D08], the “Ubc9 (SUMO-E2) inhibition” value on Ubc9 is on record as “inhibits Ubc9 by preventing the transfer of SUMO from Ubc9 to the substrate”.
Regarding `[Ba+2]` [Ba^2+], the “block of IK1 (hypoxia-sensitive and insensitive components)” value in test [2] (3 mM) is listed as “blocked”.
For viomellein, the “Ubc9 (SUMO-E2) inhibition” value at Ubc9 is recorded as “inhibitors of SUMO-E2”.
In the case of “heat-denatured SUMO1: heat-denatured SUMO1 peptide, control”, the “inhibition of Kir2.4 currents” value in the test with Kir2.4 was “not”.
Take `C[C@@H](C(=O)Nc1ccc(NC(=O)c2ccc(C(=O)c3ccccc3)cc2)cc1)n1cccn1` [Compound 27]: on Ubc9, the “formation of the SUMO-E2 complex” value is reported as “inhibited formation of the SUMO-E2 complex”.
